Earlier results as cited in patent publication US20250345309A1, “IMMUNE HEALTH IMPROVERS” (Amazentis SA, priority 2024, published 2025).

Settings: over 4 months, middle-aged adults (Singh et al. 2022); cited from earlier work

O=c1oc2cc(O)ccc2c2ccc(O)cc12 [Urolithin A (UA)]
Safety and tolerability of long-term oral administration: safe and well tolerated
